Test results published in ChEMBL document CHEMBL2434896, “Carbonic anhydrase inhibitors. Synthesis of heterocyclic 4-substituted pyridine-3-sulfonamide derivatives and their inhibition of the human cytosolic isozymes I and II and transmembrane tumor-associated isozymes IX and XII” (Eur J Med Chem, 2013).
Active and inactive are the calls of the source. The rule behind the calls is not given here.

Key:
CAKI-1 = assay: Growth inhibition of human CAKI-1 cells at 10 uM after 48 hrs by sulforhodamine B assay; type: functional; conditions: CAKI-1, 48 h, read-out: GI
HOP-62 = assay: Growth inhibition of human HOP62 cells at 10 uM after 48 hrs by sulforhodamine B assay; type: functional; conditions: HOP-62, 48 h, read-out: GI
SK-OV-3 = assay: Growth inhibition of human SKOV3 cells at 10 uM after 48 hrs by sulforhodamine B assay; type: functional; conditions: SK-OV-3, 48 h, read-out: GI
T47D = assay: Growth inhibition of human T47D cells at 10 uM after 48 hrs by sulforhodamine B assay; type: functional; conditions: read-out: GI
TK-10 = assay: Growth inhibition of human TK10 cells at 10 uM after 48 hrs by sulforhodamine B assay; type: functional; conditions: TK-10, 48 h, read-out: GI
SF-295 = assay: Growth inhibition of human SF295 cells at 10 uM after 48 hrs by sulforhodamine B assay; type: functional; conditions: SF-295, 48 h, read-out: GI
DU-145 = assay: Growth inhibition of human DU145 cells at 10 uM after 48 hrs by sulforhodamine B assay; type: functional; conditions: DU-145, 48 h, read-out: GI
RPMI-8226 = assay: Growth inhibition of human RPMI8226 cells at 10 uM after 48 hrs by sulforhodamine B assay; type: functional; conditions: RPMI-8226, 48 h, read-out: GI
UACC-62 = assay: Growth inhibition of human UACC62 cells at 10 uM after 48 hrs by sulforhodamine B assay; type: functional; conditions: UACC-62, 48 h, read-out: GI
MOLT-4 = assay: Growth inhibition of human MOLT4 cells at 10 uM after 48 hrs by sulforhodamine B assay; type: functional; conditions: MOLT-4, 48 h, read-out: GI
HL-60(TB) = assay: Growth inhibition of human HL-60(TB) cells at 10 uM after 48 hrs by sulforhodamine B assay; type: functional; conditions: HL-60, 48 h, read-out: GI
Carbonic anhydrase 9 = Carbonic anhydrase 9 (Homo sapiens, UniProt Q16790); assay: Inhibition of human carbonic anhydrase 9 after 15 mins by stopped flow CO2 hydration assay
A498 = assay: Growth inhibition of human A498 cells at 10 uM after 48 hrs by sulforhodamine B assay; type: functional; conditions: A498, 48 h, read-out: GI
NCI-H460 = assay: Growth inhibition of human NCI-H460 cells at 10 uM after 48 hrs by sulforhodamine B assay; type: functional; conditions: NCI-H460, 48 h, read-out: GI
Hs-578T = assay: Growth inhibition of human Hs 578T cells at 10 uM after 48 hrs by sulforhodamine B assay; type: functional
SF-268 = assay: Growth inhibition of human SF268 cells at 10 uM after 48 hrs by sulforhodamine B assay; type: functional; conditions: SF-268, 48 h, read-out: GI
COLO 205 = assay: Growth inhibition of human COLO205 cells at 10 uM after 48 hrs by sulforhodamine B assay; type: functional
OVCAR-4 = assay: Growth inhibition of human OVCAR4 cells at 10 uM after 48 hrs by sulforhodamine B assay; type: functional; conditions: OVCAR-4, 48 h, read-out: GI
BT-549 = assay: Growth inhibition of human BT549 cells at 10 uM after 48 hrs by sulforhodamine B assay; type: functional; conditions: BT-549, 48 h, read-out: GI
NCI-H226 = assay: Growth inhibition of human NCI-H226 cells at 10 uM after 48 hrs by sulforhodamine B assay; type: functional; conditions: NCI-H226, 48 h, read-out: GI
MCF7 = assay: Growth inhibition of human MCF7 cells at 10 uM after 48 hrs by sulforhodamine B assay; type: functional; conditions: MCF7, 48 h, read-out: GI
LOX IMVI = assay: Growth inhibition of human LOXIMVI cells at 10 uM after 48 hrs by sulforhodamine B assay; type: functional; conditions: read-out: GI
HT-29 = assay: Growth inhibition of human HT-29 cells at 10 uM after 48 hrs by sulforhodamine B assay; type: functional; conditions: HT-29, 48 h, read-out: GI
SK-MEL-28 = assay: Growth inhibition of human SK-MEL-28 cells at 10 uM after 48 hrs by sulforhodamine B assay; type: functional, cell-based
SF-539 = assay: Growth inhibition of human SF539 cells at 10 uM after 48 hrs by sulforhodamine B assay; type: functional; conditions: SF-539, 48 h, read-out: GI
SNB-75 = assay: Growth inhibition of human SNB75 cells at 10 uM after 48 hrs by sulforhodamine B assay; type: functional; conditions: SNB-75, 48 h, read-out: GI
SK-MEL-5 = assay: Growth inhibition of human SK-MEL-5 cells at 10 uM after 48 hrs by sulforhodamine B assay; type: functional; conditions: SK-MEL-5, 48 h, read-out: GI
IGROV-1 = assay: Growth inhibition of human IGROV1 cells at 10 uM after 48 hrs by sulforhodamine B assay; type: functional; conditions: IGROV-1, 48 h, read-out: GI
UO-31 = assay: Growth inhibition of human UO31 cells at 10 uM after 48 hrs by sulforhodamine B assay; type: functional; conditions: UO-31, 48 h, read-out: GI
CCRF-CEM = assay: Growth inhibition of human CCRF-CEM cells at 10 uM after 48 hrs by sulforhodamine B assay; type: functional; conditions: read-out: GI
RXF 393 = assay: Growth inhibition of human RXF393 cells at 10 uM after 48 hrs by sulforhodamine B assay; type: functional; conditions: RXF 393, 48 h, read-out: GI
SNB-19 = assay: Growth inhibition of human SNB19 cells at 10 uM after 48 hrs by sulforhodamine B assay; type: functional; conditions: SNB-19, 48 h, read-out: GI
OVCAR-3 = assay: Growth inhibition of human OVCAR3 cells at 10 uM after 48 hrs by sulforhodamine B assay; type: functional; conditions: OVCAR-3, 48 h, read-out: GI
SR = assay: Growth inhibition of human SR cells at 10 uM after 48 hrs by sulforhodamine B assay; type: functional; conditions: read-out: GI
KM12 = assay: Growth inhibition of human KM12 cells at 10 uM after 48 hrs by sulforhodamine B assay; type: functional; conditions: KM12, 48 h, read-out: GI
OVCAR-5 = assay: Growth inhibition of human OVCAR5 cells at 10 uM after 48 hrs by sulforhodamine B assay; type: functional; conditions: OVCAR-5, 48 h, read-out: GI
MDA-MB-435 = assay: Growth inhibition of human MDA-MB-435 cells at 10 uM after 48 hrs by sulforhodamine B assay; type: functional; conditions: MDA-MB-435, 48 h, read-out: GI
K562 = assay: Growth inhibition of human K562 cells at 10 uM after 48 hrs by sulforhodamine B assay; type: functional; conditions: K562, 48 h, read-out: GI
NCI-H322M = assay: Growth inhibition of human NCI-H322M cells at 10 uM after 48 hrs by sulforhodamine B assay; type: functional; conditions: read-out: GI
786-0 = assay: Growth inhibition of human 786-0 cells at 10 uM after 48 hrs by sulforhodamine B assay; type: functional; conditions: 786-0, 48 h, read-out: GI
SK-MEL-2 = assay: Growth inhibition of human SK-MEL-2 cells at 10 uM after 48 hrs by sulforhodamine B assay; type: functional; conditions: SK-MEL-2, 48 h, read-out: GI

Structure (SMILES): NS(=O)(=O)c1cnccc1N1CCN(c2ccc(Cl)c(Cl)c2)CC1
- inhibition of growth at 10 µM (CAKI-1): 36%
- inhibition of growth at 10 µM (HOP-62): 1%
- inhibition of growth at 10 µM (SK-OV-3): 8%
- inhibition of growth at 10 µM (T47D): 72%
- inhibition of growth at 10 µM (TK-10): 9%
- inhibition of growth at 10 µM (SF-295): 41%
- inhibition of growth at 10 µM (DU-145): 7%
- inhibition of growth at 10 µM (RPMI-8226): 47%
- inhibition of growth at 10 µM (UACC-62): 38%
- inhibition of growth at 10 µM (MOLT-4): 39%
- inhibition of growth at 10 µM (HL-60(TB)): 18%
- Ki (Carbonic anhydrase 9): 341 nM
- inhibition of growth at 10 µM (A498): 12%
- inhibition of growth at 10 µM (NCI-H460): 16%
- growth inhibition (GI) (Hs-578T): inactive
- inhibition of growth at 10 µM (SF-268): 2%
- growth inhibition (GI) (COLO 205): inactive
- inhibition of growth at 10 µM (OVCAR-4): 65%
- inhibition of growth at 10 µM (BT-549): 27%
- inhibition of growth at 10 µM (NCI-H226): 28%
- inhibition of growth at 10 µM (MCF7): 37%
- inhibition of growth at 10 µM (LOX IMVI): 19%
- inhibition of growth at 10 µM (HT-29): 29%
- growth inhibition (GI) (SK-MEL-28): inactive
- inhibition of growth at 10 µM (SF-539): 16%
- inhibition of growth at 10 µM (SNB-75): 3%
- inhibition of growth at 10 µM (SK-MEL-5): 89%
- inhibition of growth at 10 µM (IGROV-1): 31%
- inhibition of growth at 10 µM (UO-31): 31%
- inhibition of growth at 10 µM (CCRF-CEM): 47%
- inhibition of growth at 10 µM (RXF 393): 8%
- inhibition of growth at 10 µM (SNB-19): 5%
- inhibition of growth at 10 µM (OVCAR-3): 30%
- inhibition of growth at 10 µM (SR): 35%
- inhibition of growth at 10 µM (KM12): 18%
- inhibition of growth at 10 µM (OVCAR-5): 1%
- inhibition of growth at 10 µM (MDA-MB-435): 32%
- inhibition of growth at 10 µM (K562): 65%
- inhibition of growth at 10 µM (NCI-H322M): 18%
- inhibition of growth at 10 µM (786-0): 15%
- inhibition of growth at 10 µM (SK-MEL-2): 16%
